The text below walks through data of patent US20250145631A1, “HETEROCYCLIC COMPOUND ACTING ON G12D MUTANT KRAS PROTEIN” (Astellas Pharma Inc., priority 2022, published 2025).

What all share (type): cell-based
The subject of experiment [1] is human G12D mutant KRAS-positive pancreatic cancer line AsPC-1. Put plainly: Non-anchorage-dependent cell growth inhibitory effect, spheroid 3D culture (Test Example 3). The settings on record: ASPC1, 144 h, AsPC-1 spheroid 3D culture, 6 days; for IC50: CellTiter Glo 2.0, read-out: IC50 (non-anchorage-dependent cell growth inhibition). The procedure:
The non-anchorage-dependent cell growth inhibitory effect of test compounds was evaluated by spheroid 3D cell culture.
AsPC-1 cells were seeded on low-cell-adhesive round bottom 384-well plates (PrimeSurface: from Sumitomo Bakelite) at 20 μL (or […])/well to give 5×10^2 cells per well. As for the cell culture conditions, RPMI 1640 medium containing 10% fetal bovine serum was used in the presence of 5% CO2 at 37° C.
The next day, the test compounds (10 points or 6 points having final concentrations in the range of 10 μM to 0.3 nM) and DMSO, which was the solvent for the test compounds, as a negative control were diluted 500-fold (or 100-fold) with a fresh medium and were added at 20 μL (or […]) per well. After culturing in the presence of 5% C02 at 37° C. for 6 days, CellTiter Glo 2.0 (from Promega) was added at 20 μL per well. After stirring with a plate mixer (from FINEPCR) at normal temperature for 1 hour, the luminescent signals were measured with ARVO X3 (from PerkinElmer).
With the signaling value in treatment with DMSO taken as 100% and with the signaling value in the medium alone without cells taken as 0%, the 50% inhibitory concentration values (IC50) were calculated by Sigmoid-Emax nonlinear regression analysis. The calculated 50% inhibition represents the inhibition at the highest concentration evaluated (10 μM) for a compound that exceeds the concentration in the evaluation range.
(§1) In the tables presented below, Ex represents Example No. The IC50 of Ex. 13, Ex. 15, and Ex. 16 were calculated using the molecular weights as tetrahydrochloride, and the IC50 of Ex. 14 was calculated using the molecular weight as trihydrochloride.
Background: In ATP-based viability assays light output follows the ATP content of the culture.

In the next experiment the target is T1, KRAS G12D (Homo sapiens, UniProt P01116, G12D).
T1 construct: host or cells: AsPC-1 (human pancreatic cancer line)
In words: KRAS degradation activity by Cell ELISA in AsPC-1 cells (Test Example 1). The settings on record: Cell ELISA; for Dmax: ASPC1, overnight treatment, read-out: Dmax (degradation rate at the concentration showing highest degradation); for DC50: overnight treatment, read-out: DC50 (50% degradation concentration of KRAS). The procedure:
The KRAS degradation activity of test compounds was evaluated by measuring the expression levels of KRAS G12D by Cell ELISA.
AsPC-1 cells were seeded at 20 μL per well on 384-well plates (from Greiner bio-one) to give 2.0×10^4 cells per well. As for the cell culture conditions, RPMI 1640 (from Sigma-Aldrich) medium containing 10% fetal bovine serum (from Cytiva) was used in the presence of 5% CO2 at 37° C.
The next day, the test compounds (10 points having final concentrations in the range of 10 μM to 0.3 nM) and DMSO (from FUJIFILM Wako Pure Chemical Corporation), which was the solvent for the test compounds, as a negative control were diluted 500-fold with a fresh medium and were added at 20 μL per well. The cells were cultured overnight. The next day, the culture supernatant was removed, and 4% paraformaldehyde phosphate buffer (from FUJIFILM Wako Pure Chemical Corporation) was added at 20 μL per well. The plates were allowed to stand for 30 minutes at room temperature to thus immobilize the cells. Then, the supernatant was removed, and 0.1% Triton X-100 (from Amersham Biosciences)-containing Phosphate buffered saline (PBS; from FUJIFILM Wako Pure Chemical Corporation) was added at 20 μL per well. After allowing to stand for 10 minutes at room temperature, the supernatant was removed. PBS was added at 25 μL per well, and the supernatant was removed to thus wash each well. The washing was performed twice in total. Next, the supernatant was removed, and 0.5% sodium dodecyl sulfate (SDS; from Invitrogen)-containing PBS was added at 20 μL per well. After allowing to stand at room temperature for 10 minutes, the supernatant was removed by a centrifugal operation (using a centrifugal dehydrator machine, the supernatant was removed by the same method hereinafter). PBS was added at 25 μL per well, and the supernatant was removed to thus wash each well. The washing was performed twice in total. The supernatant was removed, and blocking solution (Intercept Blocking Buffer; from Li—COR Biosciences) was added at 20 μL per well. After allowing to stand for 30 minutes at room temperature, the supernatant was removed, and a solution obtained by diluting anti-β-actin antibody (Anti-beta Actin antibody [mAbcam 8226]-Loading Control; from abcam) 1,000-fold with blocking solution and a solution obtained by diluting anti-Ras (G12D Mutant Specific) antibody (Ras (G12D Mutant Specific) (D8H7) Rabbit mAb #14429; from Cell Signaling Technology) and anti-β-actin antibody (from abcam) 1,000-fold with blocking solution were respectively added to positive control wells and the other wells at 15 μL per well as a primary antibody. The plates were allowed to stand overnight at 4° C.
The next day, the supernatant was removed. PBS was added at 25 μL per well, and the supernatant was removed to thus wash each well. The washing was performed twice in total. The supernatant was removed, and a solution obtained by diluting Donkey anti-Mouse IgG H&L (IRDye 680RD) (from Li—COR Biosciences) and Goat anti-Rabbit IgG H&L (IRDye 800CW) (from Li—COR Biosciences) 1,000-fold with blocking solution was added at 15 μL per well as a secondary antibody. A solution obtained by diluting Donkey anti-Mouse IgG H&L (IRDye 680RD) (from Li—COR Biosciences) 1,000-fold with blocking solution was added to a positive control well as a secondary antibody. After allowing to stand for 1 hour at room temperature, the supernatant was removed. PBS was added at […], and the supernatant was removed to thus wash each well. The washing was performed twice in total. After removing the supernatant, the plates were dried with air at room temperature for 2 hours or more, and the 700 nm and 800 nm fluorescent signals were measured with Aerius (from Li—COR Biosciences). […]

Experiment [2] has as its system phosphorylation of ERK (Thr202/Tyr204). Put plainly: ERK phosphorylation inhibitory effect by Cell ELISA in AsPC-1 cells (Test Example 2). As to conditions: Homo sapiens, ASPC1, overnight treatment, Cell ELISA, read-out: IC50 (ERK phosphorylation inhibition). The procedure:
The ERK phosphorylation inhibitory effect of test compounds was evaluated by measuring phosphorylation of threonine 202 (Thr202) and tyrosine 204 (Tyr204) of ERK located downstream of the KRAS signal by Cell ELISA.
AsPC-1 cells were seeded on 384-well plates at 20 µL/well to give 2.0×10^4 cells per well. As for the cell culture conditions, RPMI 1640 medium containing 10% fetal bovine serum was used in the presence of 5% CO2 at 37° C.
The next day, the test compounds (10 points having final concentrations in the range of 10 μM to 0.3 nM), trametinib (MEK inhibitor) of a final concentration of […] as positive control and DMSO, which was the solvent for the test compounds, as negative control were diluted 500-fold with a fresh medium and were added at 20 μL per well. The cells were cultured overnight. After culturing, 30% glyoxal solution (40% glyoxal [from Nacalai Tesque]was diluted with PBS) was quickly added at 30 μL per well, and the plates were allowed to stand for 120 minutes at room temperature to thus immobilize the cells. Then, the plates were centrifuged to remove the supernatant (using a centrifugal dehydrator machine, the supernatant was removed by the same method hereinafter), and 0.10% Triton X-100-containing PBS was added at 20 μL per well. After allowing to stand for 10 minutes at room temperature, the supernatant was removed, and the same operation was further repeated. Next, 0.5% SDS-containing PBS was added at 20 μL per well, and after allowing to stand at room temperature for 30 minutes, the supernatant was removed. Subsequently, blocking solution (Intercept Blocking Buffer) was added at 20 μL per well, and the plates were allowed to stand for 1 hour at room temperature. The supernatant was removed, and an ERK (Thr202/Tyr204) phosphorylation antibody (Phospho-p44/42 MAPK (Erk 1/2) (Thr202/Tyr204) (D13.14.4E) XP Rabbit mAb; from Cell Signaling Technology) diluted 2,500-fold with blocking solution was added at 15 μL per well as a primary antibody. The plates were allowed to stand at 4° C. overnight.
The next day, the supernatant was removed. 0.05% Tween-20 (from Thermo Fisher Scientific)-containing PBS was added at 50 μL per well, and the supernatant was removed to thus wash each well. The washing was performed three times in total. After washing, Goat anti-Rabbit IgG H&L (IRDye 800CW) diluted 1,000-fold with blocking solution was added at 15 μL per well as a secondary antibody, and the plates were allowed to stand for 1 hour at room temperature. The supernatant was removed, and each well was washed three times with 0.05% Tween-20-containing PBS in the same manner as after the primary antibody reaction. After removing the supernatant, the plates were dried with air at room temperature for 3 hours or more, and the 800-nm fluorescent signals were measured with Aerius.
With the signaling value at the time of addition of DMSO taken as 100% and with the signaling value at the time of addition of […] trametinib taken as 0%, the 50% inhibitory concentration values (IC50) were calculated by Sigmoid-Emax nonlinear regression analysis. The calculated 50% inhibition represents the inhibition at the highest concentration evaluated (10 μM) for a compound that exceeds the concentration in the evaluation range.
as §1
In general terms: An ELISA detects its analyte on a solid surface through an enzyme-linked reagent.

T1 sequence (P01116 1-188 isoform P01116-2 G12D): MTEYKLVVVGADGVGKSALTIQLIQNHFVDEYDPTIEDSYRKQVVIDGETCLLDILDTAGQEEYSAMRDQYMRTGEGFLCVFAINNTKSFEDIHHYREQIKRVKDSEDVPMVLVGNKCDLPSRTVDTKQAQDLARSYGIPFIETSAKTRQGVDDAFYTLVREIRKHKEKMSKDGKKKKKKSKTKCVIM

As usually defined, the IC50 is the concentration needed to halve the response being measured. Take `CO[C@H](C)COc1cc(O[C@H]2CCNC2)c2cc(C3CC3)c(-c3c(C)c(F)cc4[nH]ncc34)c(OCc3ccc(C(=O)N4CCN(Cc5ccc6c(c5)n(C)c(=O)n6C5CCC(=O)NC5=O)C[C@@H]4C)cc3)c2n1` (some centres unmarked) [Example 44]: the half-maximal inhibitory concentration (IC50) in experiment [1] stood at 0.123 µM; in experiment [2], 0.069 µM. The Dmax on KRAS G12D is 74%. Also, on KRAS G12D, the DC50 was found to be 0.041 µM.

Regarding `Cc1c(F)cc2[nH]ncc2c1-c1c(C2CC2)cc2c(N3C[C@@H]4C[C@H]3CN4)nc(OC3CCOCC3)nc2c1OCc1ccc(C(=O)N2CCN(Cc3ccc4c(c3)C(=O)N(C3CCC(=O)NC3=O)C4=O)CC2)cc1` (some centres unmarked) [Example 1], the inhibition at 10 µM in experiment [1] (at 10 μM, read-out: cell growth inhibition at the highest concentration evaluated) stood at 37%. For the same compound, on KRAS G12D, the Dmax stood at 59% and the DC50 is 1.95 µM. For the same compound, the IC50 in experiment [2] came to 3.36 µM.

Regarding `Cc1nc(N2CCN(C(=O)c3ccc(COc4c(-c5c(C)c(F)cc6[nH]ncc56)c(C5CC5)cc5c(N6C[C@@H]7C[C@H]6CN7)nc(OC6CCOCC6)nc45)cc3)CC2)ccc1N1CCC(=O)NC1=O` (atropisomer, axis not shown) [Example 14], the IC50 in experiment [1] came to 1.12 µM. Further, on KRAS G12D, the Dmax came to 51% and the DC50 worked out at 2.18 µM. For the same compound, the half-maximal inhibitory concentration (IC50) in experiment [2] amounted to 1.51 µM.

As for `Cc1c(F)cc2[nH]ncc2c1-c1c(C2CC2)cc2c(O[C@H]3CCNC3)cc(OC[C@H]3CCCO3)nc2c1OCc1ccc(C(=O)N2CCN(Cc3ccc4c(c3)n(C)c(=O)n4C3CCC(=O)NC3=O)C[C@@H]2C)cc1` (atropisomer, axis not shown) [Example 32], the IC50 in experiment [1] is 0.06 µM; in experiment [2], 0.069 µM. For the same compound, on KRAS G12D, the Dmax stood at 78%. Besides, on KRAS G12D, the DC50 came to 0.046 µM.

As to `Cc1c(F)cc2[nH]ncc2c1-c1c(C2CC2)cc2c(N3C[C@@H]4C[C@H]3CN4)nc(OC[C@@H]3CCCO3)nc2c1OCc1ccc(C(=O)N2CCN(Cc3ccc4c(c3)n(C)c(=O)n4C3CCC(=O)NC3=O)C[C@@H]2C)cc1` (some centres unmarked) [Example 40], in experiment [1], the 50% inhibitory concentration (IC50) was found to be 0.046 µM. Moreover, on KRAS G12D, the Dmax worked out at 88% and the DC50 was 0.023 µM. In addition, the 50% inhibitory concentration (IC50) in experiment [2] stood at 0.03 µM.

As to `Cc1c(F)cc2[nH]ncc2c1-c1c(C2CC2)cc2c(N3C[C@@H]4C[C@H]3CN4)nc(OC3CCOCC3)nc2c1OCc1ccc(C(=O)N2CCN(Cc3ccc4c(c3)CN(C3CCC(=O)NC3=O)C4=O)C[C@@H]2C)cc1` (stereo partly drawn) [Example 33, 3-(5-{[(3S)-4-{4-[({(7M)-6-cyclopropyl-4-[(1S,4S)-2,5-diazabicyclo[2.2.1]heptan-2-yl]-7-(6-fluoro-5-methyl-1H-indazol-4-yl)-2-[(oxan-4-yl)oxy]quinazolin-8-yl}oxy)methyl]benzoyl}-3-methylpiperazin-1-yl]methyl}-1-oxo-1,3-dihydro-2H-isoindol-2-yl)piperidine-2,6-dione], the IC50 was 0.142 µM in experiment [1] and 0.102 µM in experiment [2]. The Dmax at KRAS G12D amounted to 88%. The DC50 at KRAS G12D came to 0.079 µM.

In the case of `Cc1c(F)cc2[nH]ncc2c1-c1c(C2CC2)cc2c(N3C[C@@H]4C[C@H]3CN4)nc(O[C@H]3CCOC3)nc2c1OCc1ccc(C(=O)N2CCN(Cc3ccc4c(c3)n(C)c(=O)n4C3CCC(=O)NC3=O)C[C@@H]2C)cc1` (some centres unmarked) [Example 41], the concentration for half-maximal inhibition (IC50) in experiment [1] turned out to be 0.155 µM; in experiment [2], 0.09 µM. The Dmax at KRAS G12D is 78%. For the same compound, the DC50 on KRAS G12D came to 0.052 µM.

Consider `Cc1c(F)cc2[nH]ncc2c1-c1c(C2CC2)cc2c(N3C[C@@H]4C[C@H]3CN4)nc(OC[C@H]3CCCO3)nc2c1OCc1ccc(C(=O)N2CCN(Cc3ccc4c(c3)n(C)c(=O)n4C3CCC(=O)NC3=O)C[C@@H]2C)cc1` (some centres unmarked) [Example 37], for which the half-inhibitory concentration (IC50) turned out to be 0.064 µM in experiment [1] and 0.041 µM in experiment [2]. The Dmax on KRAS G12D turned out to be 87%. Besides, the DC50 on KRAS G12D amounted to 0.03 µM.
